Assay results reported in patent publication US4363805A, “Aminodesoxy-1.4;3.6-dianhydrohexitol nitrates and pharmaceutical composition” (Firma Willmar Schwabe, priority 1980, dated 1982).

Tests used:
[1] = Acute toxicity, intravenous, mice; format: in vivo; details: mouse, in vivo; intravenous, within 24 hours; read-out: Evaluated LD50-range
[2] = system: female NMRI-albino mice; test: Acute toxicity, intravenous, mice; format: in vivo; details: within 24 hours
[3] = system: mongrel cats; test: Inotropic and heart-circulatory effectiveness on narcotised cats, intravenous; format: in vivo, cat; details: 6 animals; for blood pressure before / dp/dt (inotropism) before / heart frequency before: before administration
[4] = system: isolated guinea pig hearts; test: Experiments on Langendorff hearts (coronary flowthrough, inotropism, frequency); details: Cavia porcellus, read-out: flowthrough, percentage change with regard to the initial value
Procedure: After reaching the stationary state in the 30th minute, the hearts were each perfused with 50 ml. tyrode solution with a content of test substance of, in each case, 25 μg./ml. Each test substance was tested on 3-6 hearts.
In each case, there was measured the inotropism, the flowthrough and the frequency, whereby the values given in Table I are average values of the percentage changes in comparison with the initial values.

[5] = system: narcotised guinea pigs; test: Blood pressure experiments on guinea pigs, i.v.; format: in vivo, guinea pig; details: for blood pressure before: before administration

## O=[N+]([O-])O[C@H]1CO[C@H]2[C@@H]1OC[C@@H]2NCCCOc1ccccc1 [Example 36, 5-(3-Phenoxypropylamino)-5-desoxy-1.4;3.6-dianhydro-L-iditol 2-nitrate]
[1]
  LD50 at 24 h: 50 to 100 mg/kg
[2]; 50 mg/kg i.v.
  Frequency of death: 0/3
[2]; 100 mg/kg i.v.
  Frequency of death: 5/6
[3]; 0.25 mg/kg i.v.
  blood pressure before: 114.5 mm.Hg
  dp/dt (inotropism) before: 7933 mm.Hg/sec
  heart frequency before: 200.3 min⁻¹
  blood pressure WD: 5.1 min
  blood pressure after: 97.7 mm.Hg
  blood pressure Δ: -19.8 mm.Hg
  dp/dt (inotropism) after: 7433 mm.Hg/sec
  dp/dt (inotropism) Δ: -500 mm.Hg/sec
  dp/dt WD: 3.3 min
  heart frequency after: 204.3 min⁻¹
[3]; 0.50 mg/kg i.v.
  blood pressure WD: 8.5 min
  blood pressure after: 84.5 mm.Hg
  blood pressure Δ: -28.0 mm.Hg
  dp/dt (inotropism) after: 6650 mm.Hg/sec
  dp/dt (inotropism) Δ: -1183 mm.Hg/sec
  dp/dt WD: 7.9 min
  heart frequency after: 200.3 min⁻¹
  heart frequency Δ: -3.7 min⁻¹
[3]; 1.00 mg/kg i.v.
  blood pressure WD: 14.8 min
  blood pressure after: 74.3 mm.Hg
  blood pressure Δ: -42.5 mm.Hg
  dp/dt (inotropism) after: 5467 mm.Hg/sec
  dp/dt (inotropism) Δ: -2416 mm.Hg/sec
  dp/dt WD: 19.0 min
  heart frequency after: 194.3 min⁻¹
  heart frequency Δ: -8.0 min⁻¹
[3]; 2.50 mg/kg i.v.
  blood pressure WD: > 10 min
  blood pressure after: 62.5 mm.Hg
  blood pressure Δ: -58.3 mm.Hg
  dp/dt (inotropism) after: 4000 mm.Hg/sec
  dp/dt (inotropism) Δ: -3883 mm.Hg/sec
  dp/dt WD: 10 min
  heart frequency after: 175.3 min⁻¹
  heart frequency Δ: -22.4 min⁻¹

## O=[N+]([O-])O[C@H]1CO[C@H]2[C@@H]1OC[C@@H]2NC12CC3CC(CC(C3)C1)C2 [11 b]
[4]
  activation at 25 µg/mL: 145%

## O=[N+]([O-])O[C@H]1CO[C@H]2[C@@H]1OC[C@@H]2NCCCCc1ccccc1 [Example 29, 5-(4-Phenylbutylamino)-5-desoxy-1.4;3.6-dianhydro-L-iditol 2-nitrate]
[1]
  LD50 at 24 h: < 50 mg/kg
[2]; 50 mg/kg i.v.
  Frequency of death: 5/6
[2]; 100 mg/kg i.v.
  Frequency of death: 5/6
[2]; 200 mg/kg i.v.
  Frequency of death: 3/3
[3]; 0.25 mg/kg i.v.
  blood pressure before: 106.8 mm.Hg
  dp/dt (inotropism) before: 6480 mm.Hg/sec
  heart frequency before: 209.0 min⁻¹
  blood pressure WD: 3.2 min
  blood pressure after: 91.3 mm.Hg
  blood pressure Δ: -15.5 mm.Hg
  dp/dt (inotropism) after: 6000 mm.Hg/sec
  dp/dt (inotropism) Δ: -480 mm.Hg/sec
  dp/dt WD: 1.6 min
  heart frequency after: 204.3 min⁻¹
  heart frequency Δ: -4.7 min⁻¹
[3]; 0.50 mg/kg i.v.
  blood pressure WD: 4.1 min
  blood pressure after: 91.3 mm.Hg
  blood pressure Δ: -22.0 mm.Hg
  dp/dt (inotropism) after: 6000 mm.Hg/sec
  dp/dt (inotropism) Δ: -1040 mm.Hg/sec
  dp/dt WD: 8.2 min
  heart frequency after: 204.7 min⁻¹
  heart frequency Δ: -7.3 min⁻¹
[3]; 1.00 mg/kg i.v.
  blood pressure WD: 11.2 min
  blood pressure after: 90.7 mm.Hg
  blood pressure Δ: -34.0 mm.Hg
  dp/dt (inotropism) after: 5000 mm.Hg/sec
  dp/dt (inotropism) Δ: -2360 mm.Hg/sec
  dp/dt WD: 25.5 min
  heart frequency after: 197.7 min⁻¹
  heart frequency Δ: -11.7 min⁻¹
[3]; 2.50 mg/kg i.v.
  blood pressure WD: > 10 min
  blood pressure after: 80.8 mm.Hg
  blood pressure Δ: -48.7 mm.Hg
  dp/dt (inotropism) after: 3920 mm.Hg/sec
  dp/dt (inotropism) Δ: -3580 mm.Hg/sec
  dp/dt WD: > 10 min
  heart frequency after: 182.0 min⁻¹
  heart frequency Δ: -23.0 min⁻¹

## N#Cc1ccccc1OCC(O)CN[C@H]1CO[C@H]2[C@@H]1OC[C@@H]2O[N+](=O)[O-] (stereo partly drawn) [Example 50, 5-[2-Hydroxy-3-(2-cyanophenoxy)-propylamino]-5-desoxy-1.4;3.6-dianhydro-L-iditol 2-nitrate]
[1]
  LD50 at 24 h: 100 to 200 mg/kg
[2]; 100 mg/kg i.v.
  Frequency of death: 0/3
[2]; 200 mg/kg i.v.
  Frequency of death: 4/6
[3]; 0.25 mg/kg i.v.
  blood pressure before: 121.0 mm.Hg
  dp/dt (inotropism) before: 6533 mm.Hg/sec
  heart frequency before: 190.7 min⁻¹
  blood pressure WD: 8.5 min
  blood pressure after: 108.3 mm.Hg
  blood pressure Δ: -12.7 mm.Hg
  dp/dt (inotropism) after: 6033 mm.Hg/sec
  dp/dt (inotropism) Δ: -500 mm.Hg/sec
  dp/dt WD: 8.2 min
  heart frequency after: 195.3 min⁻¹
  heart frequency Δ: +4.6 min^-1
[3]; 0.50 mg/kg i.v.
  blood pressure WD: 9.8 min
  blood pressure after: 102.2 mm.Hg
  blood pressure Δ: -18.0 mm.Hg
  dp/dt (inotropism) after: 5133 mm.Hg/sec
  dp/dt (inotropism) Δ: -1267 mm.Hg/sec
  dp/dt WD: 8.2 min
  heart frequency after: 195.3 min⁻¹
  heart frequency Δ: +3.3 min^-1
[3]; 1.00 mg/kg i.v.
  blood pressure WD: 14.8 min
  blood pressure after: 94.2 mm.Hg
  blood pressure Δ: -27.8 mm.Hg
  dp/dt (inotropism) after: 4200 mm.Hg/sec
  dp/dt (inotropism) Δ: -2067 mm.Hg/sec
  dp/dt WD: 14.8 min
  heart frequency after: 191.7 min⁻¹
  heart frequency Δ: 0 min⁻¹
[3]; 2.50 mg/kg i.v.
  blood pressure WD: > 10 min
  blood pressure after: 77.5 mm.Hg
  blood pressure Δ: -45.8 mm.Hg
  dp/dt (inotropism) after: 2733 mm.Hg/sec
  dp/dt (inotropism) Δ: -3584 mm.Hg/sec
  dp/dt WD: > 10 min
  heart frequency after: 178.7 min⁻¹
  heart frequency Δ: -10.3 min⁻¹
[5]; 0.25 mg/kg i.v.
  blood pressure after: 39.25 ± 6.97 mm.Hg
  blood pressure Δ: -16.25 mm.Hg
  blood pressure before: 55.50 ± 7.35 mm.Hg
[5]; 1.00 mg/kg i.v.
  blood pressure after: 31.00 ± 3.94 mm.Hg
  blood pressure Δ: -21.50 mm.Hg
[5]; 2.50 mg/kg i.v.
  blood pressure after: 22.75 ± 1.80 mm.Hg
  blood pressure Δ: -27.75 mm.Hg

## COc1ccc(CCCN[C@H]2CO[C@H]3[C@@H]2OC[C@@H]3O[N+](=O)[O-])cc1OC [31 b]
[4]
  activation at 25 µg/mL: 79.4%

## CN(CCCCCc1ccccc1)[C@H]1CO[C@H]2[C@@H]1OC[C@@H]2O[N+](=O)[O-] [Example 23, 5-[N-Methyl-N-(5-phenylpentyl)-amino]-5-desoxy-1.4;3.6-dianhydro-L-iditol 2-nitrate]
[4]
  activation at 25 µg/mL: 156%

## CC(=O)N[C@H]1CO[C@H]2[C@@H]1OC[C@@H]2O[N+](=O)[O-] [Example 6, 5-Acetylamino-5-desoxy-1.4;3.6-dianhydro-L-iditol 2-nitrate]
[1]
  LD50 at 24 h: > 200 mg/kg
[2]; 200 mg/kg i.v.
  Frequency of death: 0/3
[5]; 0.25 mg/kg i.v.
  blood pressure after: 63.75 ± 7.32 mm.Hg
  blood pressure Δ: -7.00 mm.Hg
  blood pressure before: 70.75 ± 6.36 mm.Hg
[5]; 1.00 mg/kg i.v.
  blood pressure after: 55.75 ± 7.94 mm.Hg
  blood pressure Δ: -14.50 mm.Hg
[5]; 2.50 mg/kg i.v.
  blood pressure after: 47.75 ± 5.88 mm.Hg
  blood pressure Δ: -17.75 mm.Hg

## O=[N+]([O-])O[C@H]1CO[C@H]2[C@@H]1OC[C@@H]2NCCCOc1ccc(Cl)cc1Cl [Example 72, 5-[3-(2,4-Dichlorophenoxy)-propylamino]-5-desoxy-1.4;3.6-dianhydro-L-iditol2-nitrate]
[1]
  LD50 at 24 h: > 100 mg/kg
[2]; 100 mg/kg i.v.
  Frequency of death: 0/6

## O=[N+]([O-])O[C@H]1CO[C@H]2[C@@H]1OC[C@@H]2NCCCOc1ccc(Cl)cc1 [Example 68, 5-[3-(4-Chlorophenoxy)-propylamino]-5-desoxy-1.4;3.6-dianhydro-L-iditol 2-nitrate]
[1]
  LD50 at 24 h: ~100 mg/kg
[2]; 100 mg/kg i.v.
  Frequency of death: 4/9

## CN(CCc1ccccc1)[C@H]1CO[C@H]2[C@@H]1OC[C@@H]2O[N+](=O)[O-] [Example 20, 5-[N-(2-Phenylethyl)-N-methylamino]-5-desoxy-1.4;3.6-dianhydro-L-iditol 2-nitrate]
[4]
  activation at 25 µg/mL: 66.9%

## O=[N+]([O-])O[C@H]1CO[C@H]2[C@@H]1OC[C@@H]2NCCCOc1ccccc1Cl [Example 69, 5-[3-(2-Chlorophenoxy)-propylamino]-5-desoxy-1.4;3.6-dianhydro-L-iditol 2-nitrate]
[1]
  LD50 at 24 h: 50 to 100 mg/kg
[2]; 50 mg/kg i.v.
  Frequency of death: 0/10
[2]; 100 mg/kg i.v.
  Frequency of death: 3/6

## O=[N+]([O-])O[C@H]1CO[C@H]2[C@@H]1OC[C@@H]2NCCc1ccccc1 [Example 27, 5-(2-Phenylethylamino)-5-desoxy-1.4;3.6-dianhydro-L-iditol 2-nitrate]
[4]
  activation at 25 µg/mL: 67.2%

## O=[N+]([O-])O[C@@H]1CO[C@H]2[C@@H]1OC[C@@H]2NCCCCc1ccccc1 [Example 43, 2-(4-phenylbutylamino)-2-desoxy-1.4;3.6-dianhydro-D-glucitol 5-nitrate]
[1]
  LD50 at 24 h: ≥ 50 mg/kg
[2]; 50 mg/kg i.v.
  Frequency of death: 1/3
[2]; 100 mg/kg i.v.
  Frequency of death: 3/3
[2]; 200 mg/kg i.v.
  Frequency of death: 6/6

## CN(CC=Cc1ccccc1)[C@H]1CO[C@H]2[C@@H]1OC[C@@H]2O[N+](=O)[O-] [Example 24, 5-(N-Cinnamyl-N-methylamino)-5-desoxy-1.4;3.6-dianhydro-L-iditol 2-nitrate]
[4]
  activation at 25 µg/mL: 200%

## COc1ccc(OCC(O)CN[C@H]2CO[C@H]3[C@@H]2OC[C@@H]3O[N+](=O)[O-])cc1 (stereo partly drawn) [Example 44, 5-[2-Hydroxy-3-(4-methoxyphenoxy)-propylamino]-5-desoxy-1.4;3.6-dianhydro-L-iditol 2-nitrate]
[1]
  LD50 at 24 h: 100 to 200 mg/kg
[2]; 100 mg/kg i.v.
  Frequency of death: 0/3
[2]; 200 mg/kg i.v.
  Frequency of death: 2/3
